Assay results from publication PMC11684667 (Molecular cell, 2023).
Non-standard residues stand in square brackets, D forms with d. No end group written: not given here. pS = N[C@@H](COP(=O)(O)O)C(=O)O

T1: Human CK1δ catalytic domain (residues 1–294) (human, UniProt P48730 1-294)
T1 sequence: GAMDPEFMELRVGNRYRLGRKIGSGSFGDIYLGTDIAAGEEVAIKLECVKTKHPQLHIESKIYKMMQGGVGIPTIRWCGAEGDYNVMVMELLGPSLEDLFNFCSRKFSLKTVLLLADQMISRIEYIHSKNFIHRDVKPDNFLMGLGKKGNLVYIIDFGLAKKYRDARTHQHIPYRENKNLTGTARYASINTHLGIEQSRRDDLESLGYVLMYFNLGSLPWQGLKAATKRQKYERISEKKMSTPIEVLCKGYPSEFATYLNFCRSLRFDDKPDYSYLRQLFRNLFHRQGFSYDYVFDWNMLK


Tests used:
[1] = system: CK1δ ΔC; assay: NMR kinase assay monitoring priming phosphorylation at S662; type: biochemical, human; conditions: 3-hr real-time NMR kinase assay, 0.2 mM 15N-FASP, 2.5 mM ATP, 1 µM CK1δ ΔC, 25°C, SOFAST HMQC
[2] = target: T1, Human CK1δ catalytic domain (residues …); assay: crystal structure

| fraction of primed FASP (pS662), completion of priming [1] | binding result [2] | Molecule |
| --- | --- | --- |
| approximately 50% |  | WT FASP: wild-type recombinant FASP peptide (residues 645–687) from human PER2 (GAMDPEFWRKKKTGVGTHLTSLALPGKAESVASLTSQCSYSSTIVHVGDKKPQPE; left off: His-NusA, N-terminal, cleaved) |
|  | binds | GKAE[pS]VA[pS]LT[pS]QC[pS]YA [human PER2 4pFASP peptide] |
